Data as given in patent US20040067915A1, “Method to treat cardiofibrosis with a combination of an angiotensin II antagonist and spironolactone” (G.D. Searle & Co., priority 1995, published 2004).
pIC50: −log10 of the molar value. Where two headings read alike, the source gives them in different places. One block for each molecule: values may come before it.

Experiments:
[1] = target: angiotensin II AT1 receptor; assay: Assay A: Angiotensin II Binding Activity (125I-AII displacement, rat uterine membrane preparation)
Experimental: Assay A: Antiotensin II Binding Activity
Compounds of the invention were tested for ability to bind to the smooth muscle angiotensin II receptor using a rat uterine membrane preparation. […] Rat uterine membranes were prepared from fresh tissue. All procedures were carried out at 4° C. Uteri were stripped of fat and homogenized in phosphate-buffered saline at pH 7.4 containing 5 mM EDTA. The homogenate was centrifuged at 1500×g for 20 min., and the supernatant was recentrifuged at 100,000×g for 60 min. The pellet was resuspended in buffer consisting of 2 mM EDTA and 50 mM Tris-HCl (pH 7.5) to a final protein concentration of 4 mg/ml. […] The reaction was initiates by the addition of membrane protein and the mixture was incubated at 25° C. for 60 min. The incubation was terminated with ice-cold 50 mM Tris-HCl (pH 7.5) and the mixture was filtered to separate membrane-bound labelled peptide from the free ligand. The incubation tube and filter were washed with ice-cold buffer. Filters were assayed for radioactivity in a Micromedic gamma counter. Nonspecific binding was defined as binding in the presence of 10 μM of unlabelled AII. Specific binding was calculated as total binding minus nonspecific binding. […] Binding data were analyzed by a nonlinear least-squares curve fitting program.
1Assay A: Angiotensin II Binding Activity

[2] = test system: pressor response to AII; assay: Assay C: In vivo Intragastric Pressor Assay Response for AII Antagonists; details: rat; for inhibition at 3 mg/kg: po, AII pressor response
Experimental: Assay C: In vivo Intragastric Pressor Assay Response for All Antagonists
Male Sprague-Dawley rats weighing 225-300 grams were anesthetized with methohexital (30 mg/kg, i.p.) and catheters were implanted into the femoral artery and vein. The catheters were tunneled subcutaneously to exit dorsally, posterior to the head and between the scapulae. The catheters were filled with heparin (1000 units/ml of saline). The rats were returned to their cage and allowed regular rat chow and water ad libitum. After full recovery from surgery (3-4 days), rats were placed in Lucite holders and the arterial line was connected to a pressure transducer. Arterial pressure was recorded on a Gould polygraph (mmHg). Angiotensin II was administered as a 30 ng/kg bolus via the venous catheter delivered in a 50 μl volume with a 0.2 ml saline flush. The pressor response in mm Hg was measured by the difference from pre-injection arterial pressure to the maximum pressure achieved. The AII injection was repeated every 10 minutes until three consecutive injections yielded responses within 4 mmHg of each other. These three responses were then averaged and represented the control response to AII. The test compound was suspended in 0.5% methylcellulose in water and was administered by gavage. The volume administered was 2 ml/kg body weight. The standard dose was 3 mg/kg. Angiotensin II bolus injections were given at 30, 45, 60, 75, 120, 150, and 180 minutes after gavage. The pressor response to AII was measured at each time point. The rats were then returned to their cage for future testing. A minimum of 3 days was allowed between tests. Percent inhibition was calculated for each time point following gavage by the following formula: [(Control Response—Response at time point)/Control Response]×100.
3Assay C: In vivo Pressor Response

[3] = test system: angiotensin II; details: binding experiments, functional assays and in vivo tests; cited from earlier work
[4] = target: T1, angiotensin II receptor (rabbit aortic rings) (Oryctolagus cuniculus, UniProt P34976); assay: Assay B: In vitro Vascular Smooth Muscle Response for AII (rabbit aortic rings, pA2); assay type: cell-based; details: two determinations given as a/b
T1 construct: The thoracic aorta was removed, cleaned of adherent fat and connective tissue and then cut into 3-mm ring segments; from tissue; host or cells: rabbit thoracic aorta rings, endothelium removed
T1 sequence (P34976 1-359): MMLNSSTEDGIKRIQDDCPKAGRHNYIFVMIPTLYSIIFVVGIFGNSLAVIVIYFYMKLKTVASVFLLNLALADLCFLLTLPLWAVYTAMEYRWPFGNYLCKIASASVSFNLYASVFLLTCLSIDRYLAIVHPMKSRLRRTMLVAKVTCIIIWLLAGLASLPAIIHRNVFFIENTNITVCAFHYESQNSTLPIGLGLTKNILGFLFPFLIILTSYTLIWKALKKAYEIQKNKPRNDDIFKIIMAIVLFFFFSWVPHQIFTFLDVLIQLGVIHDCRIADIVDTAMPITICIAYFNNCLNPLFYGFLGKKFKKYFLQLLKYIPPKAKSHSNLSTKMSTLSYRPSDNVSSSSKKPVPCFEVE
Experimental: Assay B: In vitro Vascular Smooth Muscle-response for AII
The compounds of the invention were tested for antagonist activity in rabbit aortic rings. Male New Zealand white rabbits (2-2.5 kg) were sacrificed using an overdose of pentobarbital and exsanguinated via the carotid arteries. The thoracic aorta was removed, cleaned of adherent fat and connective tissue and then cut into 3-mm ring segments. The endothelium was removed from the rings by gently sliding a rolled-up piece of filter paper into the vessel lumen. The rings were then mounted in a water-jacketed tissue bath, maintained at 37° C., between moveable and fixed ends of a stainless steel wire with the moveable end attached to an FT03 Grass transducer coupled to a Model 7D Grass Polygraph for recording isometric force responses. […] The preparations were equilibrated for one hour before approximately one gram of passive tension was placed on the rings. Angiotensin II concentration-response curves were then recorded (3×10^−10 to 1×10^−5 M). Each concentration of AII was allowed to elicit its maximal contraction, and then AII was washed out repeatedly for 30 minutes before rechallenging with a higher concentration of AII. Aorta rings were exposed to the test antagonist at 10^−5 M for 5 minutes before challenging with AII. Adjacent segments of the same aorta ring were used for all concentration-response curves in the presence or absence of the test antagonist. The effectiveness of the test compound was expressed in terms of pA2 values and were calculated according to H. O. Schild [Br. J. Pharmacol. Chemother., 2, 189-206 (1947)]. The pA2 value is […] which increases the EC50 value for AII by a factor of two. Each test antagonist was evaluated in aorta rings from two rabbits.
2Assay B: In vitro Vascular Smooth Muscle Response

[5] = test system: myocardial fibrosis in animal models; details: cited from earlier work
[6] = hypertensive patients, continued ACE inhibition; cited from earlier work

- pIC50 [1]: 8.15
SMILES: CCCCc1nc(-c2ccccc2)nn1Cc1ccc(-c2ccccc2-c2nnn[nH]2)cc1 [Compound 21]

- pIC50 [1]: 7.14
SMILES: CCCCc1nc(CCC)nn1Cc1ccc(-c2ccccc2-c2nnn[nH]2)nc1 [Compound 246]

- pIC50 [1]: 7.08
SMILES: CCCCc1nc(Cl)nn1Cc1ccc(-c2ccccc2-c2nnn[nH]2)cc1 [Compound 7]
- Assay C Duration ([2]; dose 30 mg/kg): 130 min

- pIC50 [1]: 4.77
SMILES: CCCCc1nc(Cl)n(Cc2ccc(-c3ccccc3C(=O)O)cc2)n1 [Compound 8]

- pIC50 [1]: 7.70
SMILES: CCCCc1cn(CC2CCCCC2)c(=O)n1Cc1ccc(-c2ccccc2-c2nnn[nH]2)nc1 [Compound 205]
- Assay C Duration ([2]; dose 3 mg/kg): >180 min
- inhibition at 3 mg/kg ([2]; dose 3 mg/kg): 40%

- pIC50 [1]: 8.19
SMILES: CCCc1nc(CCC(C)C)n(Cc2ccc(-c3ccccc3-c3nnn[nH]3)cc2)n1 [Compound 16]

SMILES: CCCCc1nc(Cl)c(CC(=O)[O-])n1Cc1ccccc1[N+](=O)[O-].[Na+] [sodium salt of 2-butyl-4-chloro-1-(2-nitrobenzyl)imidazole-5-acetic acid]
- angiotensin II antagonist activity [3]: specific competitive angiotensin II antagonist activity

- pIC50 [1]: 6.70
SMILES: CCCCc1nc(CCCC)n(Cc2ccc(-c3ccccc3C(=O)NNS(=O)(=O)C(F)(F)F)cc2)n1 [Compound 5]
- Assay C Duration ([2]; dose 30 mg/kg): 20 to 30 min

- pIC50 [1]: 8.31
SMILES: CCCCc1nc(C(F)(F)CCC)nn1Cc1ccc(-c2ccccc2-c2nnn[nH]2)cc1 [Compound 10]
- Assay C Duration ([2]; dose 3 mg/kg): 100 min
- Assay C Duration ([2]; dose 30 mg/kg): 240 min

- pIC50 [1]: 8.27
- Kb [4]: 0.002 µM
SMILES: CCCCc1nc(CCCC)n(Cc2ccc(-c3ccccc3-c3nnn[nH]3)cc2)n1 [Compound 3]
- Assay C Duration ([2]; dose 10 mg/kg): >180 min
- Assay C Duration ([2]; dose 30 mg/kg): 200^+ min.

- pIC50 [1]: 7.80
SMILES: CCCc1nc(CCC)n(Cc2ccc(-c3ccccc3-c3nnn[nH]3)cc2)n1 [Compound 15]

- pIC50 [1]: 7.37
SMILES: CCCCc1nc(CC(CC)CC)n(Cc2ccc(-c3ccccc3-c3nnn[nH]3)nc2)n1 [Compound 250]
- inhibition at 3 mg/kg ([2]; dose 3 mg/kg): 0%

- pIC50 [1]: 6.15
SMILES: CCCCc1nc(Cl)n(Cc2ccc(-c3ccccc3-c3nnn[nH]3)cc2)n1 [Compound 9]
- Assay C Duration ([2]; dose 30 mg/kg): 75 min
- Assay C Duration ([2]; dose 100 mg/kg): 130 min

SMILES: CCCCc1nc(Cl)c(CC(=O)[O-])n1Cc1ccccc1Cl.[Na+] [sodium salt of 2-n-butyl-4-chloro-1-(2-chlorobenzyl)imidazole-5-acetic acid]
- angiotensin II antagonist activity [3]: specific competitive angiotensin II antagonist activity

SMILES: CC(=O)S[C@@H]1CC2=CC(=O)CC[C@]2(C)[C@H]2CC[C@@]3(C)[C@@H](CC[C@@]34CCC(=O)O4)[C@H]12 [spironolactone, 17-hydroxy-7α-mercapto-3-oxo-17α-pregn-4-ene-21-carboxylic acid γ-lactone acetate]
- myocardial fibrosis [5]: prevents myocardial fibrosis in animal models
- myocardial fibrosis ([5]; listed as Spironolactone): prevent fibrosis in animal models irrespective of the development of left ventricular hypertrophy and the presence of hypertension

- pIC50 [1]: 7.29
SMILES: CCCCc1cn(C2C3CC4CC(C3)CC2C4)c(=O)n1Cc1ccc(-c2ccccc2-c2nnn[nH]2)nc1 (stereo not drawn) [Compound 213]

- pIC50 [1]: 5.89
SMILES: CCCCc1nc(Cl)nn1Cc1ccc(-c2ccccc2C(=O)O)cc1 [Compound 6]
- Assay C Duration ([2]; dose 100 mg/kg): 120 min

SMILES: C[C@H](CS)C(=O)N1CCC[C@H]1C(=O)O [captopril]
- plasma aldosterone [6]: gradual return of plasma aldosterone to baseline levels

- pIC50 [1]: 6.80
SMILES: CCCCc1nc(C(F)(F)CCC)n(Cc2ccc(-c3ccccc3-c3nnn[nH]3)cc2)n1 [Compound 11]
